Patent US7217723B2, “Heterocyclic compound having oxime group” (Eisai Co., Ltd., priority 2004, dated 2007)

System: STAT6 activation
Assay: STAT6 activation inhibition test (IL-4-induced alkaline phosphatase STAT6 reporter gene assay)
Format: cell-based, human
Conditions: Homo sapiens, HEK293; concentration giving 50% suppression of alkaline phosphatase activity induced by IL-4 (1 ng/mL), 16 hours; 293 cells stably expressing STAT6 gene and STAT6 reporter gene
Protocol: The inhibitory activity on STAT6 activation of the compound according to present invention was evaluated according to the following test.
1) Construction of the STAT6 Reporter Gene
The oligonucleotide of SEQ ID: 1 resuting from three STAT6 binding regions of the human immunoglobulin germline ε gene promoter linked togeter, and the complementary strand thereof were mixed, and after thermal denaturation and annealing, the 5′ and the 3′ ends were respectively cut with the restriction enzymes Kpn I (TaKaRa Shuzo Code No. 1068A) and Xba I (TaKaRa ShuzoCode No. 1093A), and the resulting fragment was cloned into the Kpn I/Xba I site of the pUG-BGH-PLAP vector (described in Molecular Pharmacology, 49: 860–873 1996). In addition, the TK promoter region of the herpesvirus for inducing general transcription factors was cloned into the Xba I/Hind III (TaKaRa ShuzoCode No. 1060A) site of the pUG-BGH-PLAP vector. Then, to collect a stable expression cell strain, the neomycin resistance gene, that is a PGK-neo expression cassette, was incorporated into the Sal I (TaKaRa Shuzo, Code No. 1080A) site of this vector. Cloning of the TK promoter and the PGK-neo expression cassette was carried out according to Molecular Pharmacology, 49: 860–873 1996.
2) Construction of the STAT6 Expression Vector
Using the oligonucleotide of SEQ ID: 2 containing the initiation codon of the STAT6 gene and the oligonucleotide of SEQ ID: 3 containing the stop codon, Total RNA was prepared from human peripheral blood cells with the RNeasy Mini kit (OIAGEN, Code No. 74104). Thereafter, a reverse transcription reaction was carried out with the Takara RNA LA PCR kit (TaKaRa Shuzo, Code No. RR012A) to prepare cDNA, and using the primers of SEQ ID: 2 and 3, a PCR reaction was carried out, to amplify the STAT6 gene.
PCR product was digested with EcoR I (TaKaRa Shuzo, Code No. 1040A) and Xho I (TaKaRa Shuzo, 1094A), thereafter, the digested fragment was isolated on an agarose gel. The isolated fragment was incorporated into the vector fragment derived from the EcoR I/Xho I digestion of the pcDNA3.1 (+) (invtrogen, Code No. U790-20) vector.
3) Transformation and Preparation of a Stable Expression Cell Strain
In a Falcon 6-well plate for tissue culture (Becton Dickinson, Code No. 35-3046), 3.0×10^5 of 293 cells derived from human embryo kidney (American Type Culture Collection) were distributed and cultured overnight. The STAT6 reporter gene (1.5 μg), the STAT6 gene (1.5 μg) that were prepared and lipofectamine (GIBCO BRL, Code No. 18324-012) (20 μL) were mixed in OPTI-MEM culture medium (GIBCO BRL, Code No. 31985-070) (0.3 mL), and allowed to stand at room temperature for 20 minutes. Thereafter, the OPTI-MEM culture medium (1.2 mL) was further added, OPTI-MEM culture medium not containing fetal calf serum was added to washed cells, which were cultured for 2 hours. A culture medium (1.5 mL) containing fetal calf serum was added, and the cells were cultured for 19 more hours. The culture was continued by exchanging the culture medium and adding Geneticin (SIGMA, Code No. G-5013) so as to obtain 1 mg/mL, and cells with drug tolerance were selected. The selected drug tolerant cells were suspended in a culture medium containing 1 mg/mL of Geneticin, and distributed in a 96-well microplate (Becton Dickinson, Code No. 35-3072) so as to obtain 0.5 cells/well to carrry out cloning, and the clones expressing alkaline phosphatase in response to IL-4 were collected.
4) STAT6 Activation Inhibition Test
Cells stably expressing the STAT6 gene and the STAT6 reporter gene, and expressing alkaline phosphatase in response to IL-4 were distributed in a 96-well microplate (Becton Dickinson, Code No. 35-3072) so as to obtain 5000 cells/180 μL/well, and cultured overnight. […]

Row | Compound | IC50
1 | CN(CC(O)c1ccc(F)cc1)S(=O)(=O)c1csc2c1CCC/C2=N/OC(N)=O (centres unmarked) [Example 87, (7Z)-7-{[(Aminocarbonyl)oxy]imino}-3-{[[2-(4-fluorophenyl)-2-hydroxyethyl](methyl)amino]sulfonyl}-4,5,6,7-tetrahydro-1-benzothiophene] | 0.5 nM
2 | CN(CC(O)c1ccc(F)cc1)S(=O)(=O)c1csc2c1CCC/C2=N/OC(=O)C(C)(C)C (centres unmarked) [Example 88, (7Z)-7-{[(2,2-Dimethylpropanoyl)oxy]imino}-N-[2-(4-fluorophenyl)-2-hydroxyethyl]-N-methyl-4,5,6,7-tetrahydro-1-benzothiophene-3-sulfonamide] | 0.42 nM
3 | CN(CCc1ccccc1)C(=O)c1csc2c1CCC/C2=N/O [Example 110, (7Z)-7-Hydroxyimino-4,5,6,7-tetrahydrobenzo[b]thiophene-3-carboxylic acid methylphenethyl amide] | 0.32 nM

Same assay, conditions: concentration giving 50% suppression of alkaline phosphatase activity induced by IL-4 (1 ng/mL), 16 hours; 293 cells stably expressing STAT6 gene and STAT6 reporter gene

Row | Compound | IC50
4 | CCc1cccc(NC(=O)O/N=C2/CCCc3c(S(=O)(=O)N(C)CC(O)c4ccc(F)cc4)csc32)c1 (centres unmarked) [Example 66, (7Z)-7-({[(3-Ethylanilino)carbonyl]oxo}imino)-3-{[[2-(4-fluorophenyl)-2-hydroxyethyl](methyl)amino]sulfonyl}-4,5,6,7-tetrahydro-1-benzothiophene] | 16 nM
5 | CCOc1ccc(NC(=O)O/N=C2/CCCc3c(S(=O)(=O)N(C)CC(O)c4ccc(F)cc4)csc32)cc1 (centres unmarked) [Example 73, (7Z)-7-({[(4-Ethoxyanilino)carbonyl]oxo}imino)-3-{[[2-(4-fluoro-phenyl)-2-hydroxyethyl](methyl)amino]sulfonyl}-4,5,6,7-tetrahydro-1-benzothiophene] | 0.9 nM
6 | CCNC(=O)O/N=C1/CCCc2c(S(=O)(=O)N(C)CC(O)c3ccc(F)cc3)csc21 (centres unmarked) [Example 83, (7z)-7-({[(Ethylamino)carbonyl]oxo}imino)-3-{[[2-(4-fluorophenyl)-2-hydroxyethyl](methyl)amino]sulfonyl}-4,5,6,7-tetrahydro-1-benzothiophene] | 34 nM
7 | CN(CCc1ccc(F)cc1)C(=O)c1csc2c1CCC/C2=N/O [Example 124, (7Z)-7-Hydroxyimino-4,5,6,7-tetrahydrobenzo[b]thiophene-3-carboxylic acid[2-(4-fluorophenyl)ethyl]-methyl-amide] | 0.15 nM
8 | (7Z)-N-{1-(4-Fluorophenyl)-2-[(7-hydroxyimino-4,5,6,7-tetrahydrobe nzo[b]-thiophene-3-sulfonyl)methylamino]ethyl}acetamide [Example 23] | 9.5 nM
